From publication PMC11583123, “Linker Chemistry and Connectivity Fine-Tune the Immune Response and Kinetic Solubility of Conjugated NOD2/TLR7 Agonists” (Bioconjugate Chemistry, 2024)

Assays:
human TLR8 = target: T1, human TLR8 (Homo sapiens, UniProt Q9NR97); assay: HEK-Blue TLR8 NF-κB SEAP reporter assay; type: cell-based; conditions: HEK-Blue TLR8 cells; for EC50: 18 h, eight concentrations (1 nM to 10 μM), mean ± SEM; for TLR8 agonistic activity (in words): up to 10 μM
T1 construct: host or cells: HEK-Blue TLR8 (HEK293-derived)
T1 sequence (Q9NR97 27-1041): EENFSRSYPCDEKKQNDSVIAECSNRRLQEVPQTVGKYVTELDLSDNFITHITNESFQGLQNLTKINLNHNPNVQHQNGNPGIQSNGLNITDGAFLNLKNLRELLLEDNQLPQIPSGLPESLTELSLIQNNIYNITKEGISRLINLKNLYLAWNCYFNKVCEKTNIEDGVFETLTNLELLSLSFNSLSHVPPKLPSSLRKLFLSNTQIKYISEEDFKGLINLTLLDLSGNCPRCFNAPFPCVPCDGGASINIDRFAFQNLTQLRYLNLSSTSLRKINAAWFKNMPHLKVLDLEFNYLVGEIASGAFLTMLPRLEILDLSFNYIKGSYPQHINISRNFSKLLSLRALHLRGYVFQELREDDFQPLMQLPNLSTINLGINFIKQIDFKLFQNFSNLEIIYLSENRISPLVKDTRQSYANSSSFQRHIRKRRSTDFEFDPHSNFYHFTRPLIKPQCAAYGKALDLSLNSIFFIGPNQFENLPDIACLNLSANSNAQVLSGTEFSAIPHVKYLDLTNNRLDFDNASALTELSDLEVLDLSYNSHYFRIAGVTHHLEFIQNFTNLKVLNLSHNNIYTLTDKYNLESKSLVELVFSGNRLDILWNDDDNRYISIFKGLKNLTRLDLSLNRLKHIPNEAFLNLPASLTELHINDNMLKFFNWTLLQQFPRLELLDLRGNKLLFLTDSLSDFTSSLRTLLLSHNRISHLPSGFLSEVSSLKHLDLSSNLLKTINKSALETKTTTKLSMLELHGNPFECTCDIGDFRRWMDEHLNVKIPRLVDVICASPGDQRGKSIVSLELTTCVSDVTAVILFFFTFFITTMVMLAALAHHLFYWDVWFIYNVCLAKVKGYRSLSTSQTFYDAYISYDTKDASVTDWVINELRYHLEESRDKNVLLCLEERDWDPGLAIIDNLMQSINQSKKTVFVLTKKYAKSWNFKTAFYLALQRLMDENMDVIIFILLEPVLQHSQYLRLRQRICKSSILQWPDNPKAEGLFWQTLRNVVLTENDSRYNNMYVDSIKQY
From the text: (§1) The building blocks and synthesized conjugates were initially assessed for their receptor-specific activities toward NOD2, TLR7 and TLR8 using the commercially available HEK-Blue NOD2, TLR7 and TLR8 reporter cell lines. These cell lines were derived from HEK293 cells by cotransfection of human NOD2/TLR7/TLR8 and an NF-κB-inducible secreted embryonic alkaline phosphatase (SEAP). Activation of NOD2/TLR7/TLR8, and subsequently of NF-κB, leads to the expression and secretion of SEAP, the levels of which can be quantified colorimetrically. […]
(§2) 3.1. Hek-Blue NOD2, TLR7 and TLR8 cells.
(§3) HEK-Blue NOD2, TLR7, and TLR8 cells (Invivogen, San Diego, CA, USA) were cultured according to the manufacturer instructions in Dulbecco’s modified Eagle’s medium (Sigma-Aldrich, St. Louis, MO, USA) supplemented with 10% heat-inactivated fetal bovine serum (Gibco), 2 mM L-glutamine (Sigma-Aldrich), 100 U/mL penicillin (Sigma-Aldrich), 100 µg/mL streptomycin (Sigma-Aldrich), and 100 µg/mL Normocin (Invivogen) for two passages. All subsequent passages of NOD2 and TLR8 cells were cultured in medium additionally supplemented with 100 µg/mL Zeocin and 30 µg/mL Blasticidin (Invivogen) and of TLR7 cells with 100 µg/mL Zeocin and 10 µg/mL Blasticidin. […]
(§4) The tested compounds were dissolved in DMSO and further diluted in culture medium to the desired final concentrations, such that the final DMSO concentration never exceeded 0.1%. […]
(§5) 3.4 NOD2/TLR7/TLR8 NF-kB reporter assay
(§6) HEK-Blue NOD2 cells (25,000 cells/well), TLR7 and TLR8 cells (40,000 cells/well) were seeded in 96-well plates in 100 µL HEK-Blue detection medium (Invivogen, San Diego, CA, USA) and treated with […]
(§7) corresponding vehicle (0.1% DMSO). After 18 h of incubation (37 °C, 5% CO2), secreted embryonic

[1] = Kinetic solubility in PBS (UHPLC, method of Hoelke et al.); type: physicochemical; conditions: PBS, 5% DMSO
Experimental: Second, the kinetic solubility of all individual building blocks (compounds 4-7) and conjugates was determined (results are listed in Table 1) in order to highlight how fine-tuning of linker traits can impact this physicochemical property. Kinetic solubility refers to the maximum solubility of a compound when it precipitates from a supersaturated solution, which is metastable and not in equilibrium; it was measured using the method described by Hoelke et al.[34] The length and composition of the linker as well as linkage site are important for activity and physicochemical characteristics of conjugates, which in turn affect their pharmacokinetic profiles. In general, the benzylic COOH was exploited exclusively as the linker attachment site in TLR7 agonist-featuring conjugates, while two potential linkage sites were considered in the structure of NOD2 agonist. […] In conjugates 22-24 and 29, the moieties were connected via the γ-COOH group of the NOD2 agonist. […] It has to be kept in mind that among the polyalkylethers, the structural requirements for aqueous solubility are poised toward the (−OCH2CH2−)n unit while (−OCH2CH2CH2−)n is not beneficial in this respect.[35] […]
suspension was filtered through a syringe filter (0.45 μm), diluted 2.25-fold with acetonitrile, and analyzed with UHPLC. The solubility was quantified with a five-point calibration curve from 500 to 0.8 μM generated by dilution of the original DMSO solution into a 1:1 mixture of acetonitrile and PBS. The content of DMSO in all solutions was fixed to 5% by adding the respective amounts of DMSO. The column used was Waters Acquity UPLC BEH C18 (1.7 μm, 2.1 × 50 mm). The eluent was a mixture of 0.1% TFA in water (A) and acetonitrile (B), with a gradient of (%B): 0−6 min, 5−95%; 6−8 min, 95%; 8−8.5 min, 95−5%. The column was thermostated at 40 °C.
3.1. Hek-Blue NOD2, TLR7 and TLR8 cells. […]
(BioTek Synergy microplate reader; Winooski, VT, USA). EC50 values were calculated using Prism

human NOD2 = target: T2, human NOD2 (Homo sapiens, UniProt Q9HC29); assay: HEK-Blue NOD2 NF-κB SEAP reporter assay; type: cell-based; conditions: HEK-Blue NOD2 cells
T2 construct: host or cells: HEK-Blue NOD2 (HEK293-derived)
T2 sequence (Q9HC29 whole entry): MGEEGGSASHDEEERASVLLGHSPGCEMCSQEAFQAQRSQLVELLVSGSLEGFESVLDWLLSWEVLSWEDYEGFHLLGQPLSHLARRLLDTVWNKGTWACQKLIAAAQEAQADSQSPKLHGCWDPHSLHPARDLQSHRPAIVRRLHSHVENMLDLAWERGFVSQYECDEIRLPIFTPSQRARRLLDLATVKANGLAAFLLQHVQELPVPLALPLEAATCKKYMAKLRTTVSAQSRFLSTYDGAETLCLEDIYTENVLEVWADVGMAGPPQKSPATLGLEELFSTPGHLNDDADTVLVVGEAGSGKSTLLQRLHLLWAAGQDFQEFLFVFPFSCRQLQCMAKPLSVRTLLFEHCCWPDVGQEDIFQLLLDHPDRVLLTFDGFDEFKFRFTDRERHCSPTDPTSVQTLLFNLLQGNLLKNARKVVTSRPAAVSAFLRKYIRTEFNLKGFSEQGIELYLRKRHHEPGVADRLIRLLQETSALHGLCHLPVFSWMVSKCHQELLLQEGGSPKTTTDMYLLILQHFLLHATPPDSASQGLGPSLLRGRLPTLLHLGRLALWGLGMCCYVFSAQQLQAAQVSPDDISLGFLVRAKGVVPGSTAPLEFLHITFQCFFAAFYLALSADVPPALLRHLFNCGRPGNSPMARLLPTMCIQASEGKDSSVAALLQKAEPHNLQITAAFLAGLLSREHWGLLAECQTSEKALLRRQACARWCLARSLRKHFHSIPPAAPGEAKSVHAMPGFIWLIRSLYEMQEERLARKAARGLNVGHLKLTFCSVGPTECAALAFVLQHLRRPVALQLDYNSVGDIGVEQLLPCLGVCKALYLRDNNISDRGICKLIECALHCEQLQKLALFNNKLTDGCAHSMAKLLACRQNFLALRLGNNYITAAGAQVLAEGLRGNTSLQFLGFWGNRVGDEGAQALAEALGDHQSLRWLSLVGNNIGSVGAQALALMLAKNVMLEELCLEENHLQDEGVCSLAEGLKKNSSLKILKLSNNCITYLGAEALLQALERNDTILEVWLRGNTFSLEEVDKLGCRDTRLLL
From the text: as §1, §2, §3, §4, §5, §6, §7

[2] = aqueous with cosolvent or surfactant or cyclodextrin, kinetic from dmso stock
[3] = 18 h, eight concentrations (1 nM to 10 μM), mean ± SEM

In the case of `CCOCc1nc2c(NC(=O)CCCCCNC(=O)CC[C@@H](NC(=O)[C@@H](NC(=O)CNC(=O)/C=C/c3ccc(O)c(OC)c3)C(C)C)C(=O)OCC)nc3ccccc3c2n1CC(C)(C)O` [compound 32], the EC50 (human TLR8) is reported as > 10 µM, the “TLR8 agonistic activity (in words)” value (human TLR8) is reported as “neither 32 nor 33 were able to induce any TLR8 agonistic activity” and the solubility kinetic [1] is reported as 437.3 µM. It also gave a solubility kinetic [1, 2] of 437 µM, an EC50 (human NOD2) of 7.2 µM and an EC50 (human NOD2; [3]) of 7.23 ± 0.499 µM.

In the case of `CCOCc1nc2c(N)nc3ccccc3c2n1CC(C)(C)NC(=O)CCCCCNC(=O)CC[C@@H](NC(=O)[C@@H](NC(=O)CNC(=O)/C=C/c1ccc(O)c(OC)c1)C(C)C)C(=O)OCC` [compound 33], the EC50 (human TLR8) is reported as > 10 µM, the “TLR8 agonistic activity (in words)” value (human TLR8) is reported as “neither 32 nor 33 were able to induce any TLR8 agonistic activity” and the solubility kinetic [1] is reported as 404.1 µM. For the same molecule, the solubility kinetic [1, 2] was 404 µM and the EC50 (human NOD2; [3]) was > 10 µM.
